Values after ≈ are worked out from the molar mass of the structure shown. Like-named read-outs stand apart in the source and are kept apart here.
What was measured:
Format in all cases: cell-based
[1] = system: Bacillus subtilis ATCC 6633; experiment: Broth microdilution MIC/MBC; details: for MBC: ATCC6633
Outline: (§1)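 Minimal inhibitory concentrations are determined by broth microdilution following EUCAST and CLSI. DMSO-dissolved compounds are serially halved from 1000 to 0.488 µg/ml final; inocula are 0.5 McFarland.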

[2] = system: Staphylococcus aureus ATCC 43300; experiment: Broth microdilution MIC/MBC; details: Staphylococcus aureus ATCC 43300 (MRSA)
Outline: as §1

[3] = system: Salmonella typhimurium ATCC 14028; experiment: Broth microdilution MIC/MBC; details: for MIC / MBC: Salmonella enterica
Outline: as §1

[4] = system: Staphylococcus epidermidis ATCC 12228; experiment: Broth microdilution MIC/MBC; details: for MBC: ATCC12228
Outline: as §1

[5] = system: Micrococcus luteus ATCC 10240; experiment: Broth microdilution MIC/MBC; details: for MBC: ATCC10240
Outline: as §1

[6] = system: Proteus mirabilis ATCC 12453; experiment: Broth microdilution MIC/MBC; details: for MIC / MBC: ATCC12453
Outline: as §1

[7] = system: Pseudomonas aeruginosa ATCC 9027; experiment: Broth microdilution MIC/MBC; details: for MIC / MBC: ATCC9027
Outline: as §1

[8] = system: Staphylococcus aureus ATCC 29213; experiment: Broth microdilution MIC/MBC; details: for MIC / MBC: ATCC29213
Outline: as §1

[9] = system: Candida glabrata ATCC 90030; experiment: Broth microdilution MIC/MFC; details: for MIC / MFC: Nakaseomyces glabratus; for MIC: ATCC90030, read-out: MIC; for MFC: ATCC90030, read-out: MFC
Outline: as §1

[10] = system: Candida albicans ATCC 2091; experiment: Broth microdilution MIC/MFC; details: for MFC: ATCC2091, read-out: MFC; for MIC: ATCC2091, read-out: MIC
Outline: as §1

[11] = system: Candida krusei ATCC 14243; experiment: Broth microdilution MIC/MFC; details: for MIC: ATCC14243, read-out: MIC
Outline: as §1

[12] = system: Candida albicans ATCC 10231; experiment: Broth microdilution MIC/MFC; details: for MFC: ATCC10231, read-out: MFC; for MIC: ATCC10231, read-out: MIC
Outline: as §1

[13] = system: Candida parapsilosis ATCC 22019; experiment: Broth microdilution MIC/MFC; details: for MFC / MIC: Lodderomyces parapsilosis; for MFC: ATCC22019, read-out: MFC; for MIC: ATCC22019, read-out: MIC
Outline: as §1

Structure (SMILES): O=C(N/N=C/c1ccccc1Br)c1ccc(O)cc1O [Compound 23, N-[(2-bromophenyl)methylidene]-2,4-dihydroxybenzohydrazide]
- MIC ([1]; ATCC6633, read-out: MIC): > 1000 µg/mL
- MIC [2]: > 1000 µg/mL
- MIC [3]: > 1000 µg/mL
- MBC/MIC [4]: > 2
- MBC [4]: > 1000 µg/mL
- MIC ([4]; ATCC12228, read-out: MIC): 500 µg/mL (≈ 1490 µM)
- MIC ([5]; ATCC10240, read-out: MIC): > 1000 µg/mL
- MIC [6]: > 1000 µg/mL
- MIC [7]: > 1000 µg/mL
- MIC [8]: > 1000 µg/mL
- MIC [9]: > 1000 µg/mL
- MFC/MIC [10]: > 1
- MFC [10]: > 1000 µg/mL
- MIC [10]: 1000 µg/mL (≈ 2980 µM)
- MIC ([11]; Pichia kudriavzevii): > 1000 µg/mL
- MFC/MIC [12]: > 1
- MFC [12]: > 1000 µg/mL
- MIC [12]: 1000 µg/mL (≈ 2980 µM)
- MFC/MIC [13]: > 1
- MFC [13]: > 1000 µg/mL
- MIC [13]: 1000 µg/mL (≈ 2980 µM)

Structure (SMILES): O=C(N/N=C/c1cc(I)cc(I)c1O)c1ccc(O)cc1O [Compound 18, 2,4-dihydroxy-N-[(2-hydroxy-3,5-diiodophenyl)methylidene]benzohydrazide]
- MBC/MIC [1]: 2
- MIC [1]: 1.95 µg/mL (≈ 3.72 µM)
- MBC [1]: 3.91 µg/mL (≈ 7.46 µM)
- MIC ([1]; ATCC6633, read-out: MIC): 1.95 µg/mL (≈ 3.72 µM)
- MBC [2]: 31.2 µg/mL (≈ 59.6 µM)
- MBC/MIC [2]: 8
- MIC [2]: 3.91 µg/mL (≈ 7.46 µM)
- MBC/MIC [3]: > 1
- MBC [3]: > 1000 µg/mL
- MIC [3]: 1000 µg/mL (≈ 1910 µM)
- MBC/MIC [4]: 8
- MIC [4]: 0.98 µg/mL (≈ 1.87 µM)
- MBC [4]: 7.81 µg/mL (≈ 14.9 µM)
- MIC ([4]; ATCC12228, read-out: MIC): 0.98 µg/mL (≈ 1.87 µM)
- MBC/MIC [5]: 4
- MIC [5]: 0.48 µg/mL (≈ 0.916 µM)
- MBC [5]: 1.95 µg/mL (≈ 3.72 µM)
- MIC ([5]; ATCC10240, read-out: MIC): 0.48 µg/mL (≈ 0.916 µM)
- MBC/MIC [6]: > 2
- MBC [6]: > 1000 µg/mL
- MIC [6]: 500 µg/mL (≈ 954 µM)
- MBC/MIC [7]: > 1
- MBC [7]: > 1000 µg/mL
- MIC [7]: 1000 µg/mL (≈ 1910 µM)
- MBC/MIC [8]: 2
- MBC [8]: 15.6 µg/mL (≈ 29.8 µM)
- MIC [8]: 7.81 µg/mL (≈ 14.9 µM)
- MFC/MIC [9]: > 1
- MFC [9]: > 1000 µg/mL
- MIC [9]: 1000 µg/mL (≈ 1910 µM)
- MFC/MIC [10]: > 2
- MFC [10]: > 1000 µg/mL
- MIC [10]: 500 µg/mL (≈ 954 µM)
- MFC/MIC [11]: > 1
- MFC ([11]; Pichia kudriavzevii, ATCC14243, read-out: MFC): > 1000 µg/mL
- MIC ([11]; Pichia kudriavzevii): 1000 µg/mL (≈ 1910 µM)
- MFC/MIC [12]: > 1
- MFC [12]: > 1000 µg/mL
- MIC [12]: 1000 µg/mL (≈ 1910 µM)
- MFC/MIC [13]: > 2
- MFC [13]: > 1000 µg/mL
- MIC [13]: 500 µg/mL (≈ 954 µM)

Structure (SMILES): CCCc1ccc(/C=N/NC(=O)c2ccc(O)cc2O)cc1 [Compound 13, 2,4-dihydroxy-N-[(4-propylphenyl)methylidene]benzohydrazide]
- MBC/MIC [1]: > 1
- MBC [1]: > 1000 µg/mL
- MIC ([1]; ATCC6633, read-out: MIC): 1000 µg/mL (≈ 3350 µM)
- MBC [2]: > 1000 µg/mL
- MBC/MIC [2]: > 1
- MIC [2]: 1000 µg/mL (≈ 3350 µM)
- MBC/MIC [3]: > 1
- MBC [3]: > 1000 µg/mL
- MIC [3]: 1000 µg/mL (≈ 3350 µM)
- MBC/MIC [4]: > 1
- MBC [4]: > 1000 µg/mL
- MIC ([4]; ATCC12228, read-out: MIC): 1000 µg/mL (≈ 3350 µM)
- MBC/MIC [5]: > 1
- MBC [5]: > 1000 µg/mL
- MIC ([5]; ATCC10240, read-out: MIC): 1000 µg/mL (≈ 3350 µM)
- MBC/MIC [6]: > 1
- MBC [6]: > 1000 µg/mL
- MIC [6]: 1000 µg/mL (≈ 3350 µM)
- MBC/MIC [7]: > 1
- MBC [7]: > 1000 µg/mL
- MIC [7]: 1000 µg/mL (≈ 3350 µM)
- MBC/MIC [8]: > 1
- MBC [8]: > 1000 µg/mL
- MIC [8]: 1000 µg/mL (≈ 3350 µM)
- MFC/MIC [9]: > 1
- MFC [9]: > 1000 µg/mL
- MIC [9]: 1000 µg/mL (≈ 3350 µM)
- MIC [10]: > 1000 µg/mL
- MIC ([11]; Pichia kudriavzevii): > 1000 µg/mL
- MFC/MIC [12]: > 1
- MFC [12]: > 1000 µg/mL
- MIC [12]: 1000 µg/mL (≈ 3350 µM)
- MFC/MIC [13]: > 1
- MFC [13]: > 1000 µg/mL
- MIC [13]: 1000 µg/mL (≈ 3350 µM)

From article PMC10743905, “Design, Synthesis, and In Vitro and In Vivo Bioactivity Studies of Hydrazide–Hydrazones of 2,4-Dihydroxybenzoic Acid” (International Journal of Molecular Sciences, 2023)
